According to patent publication US9637520B2, “Template-fixed peptidomimetics with CXCR7 modulating activity” (POLYPHOR AG, priority 2010, dated 2017):
Starred links: 1 amine or outer side, 2 acyl side, 3 side chain; linkers in the order of their positions; H or OH if unused. Non-standard residues stand in square brackets, D forms with d. Residues, ends and D or L forms follow the SMILES beside them. *: point of attachment. Arg(Nω,Nω'-propylene) = N[C@@H](CCCNC1=NCCCN1)C(=O)O; Ala(pyrazol-1-yl) = N[C@@H](Cn1cccn1)C(=O)O; dPro(cis-4-NH2) = N[C@H]1CN[C@@H](C(=O)O)C1; X1 = O=C([C@H](CCCNCc1ccccn1)N[*:1])[*:2]; Pro(4S-NH2) = N[C@@H]1CN[C@H](C(=O)O)C1; 1Nal = N[C@@H](Cc1cccc2ccccc12)C(=O)O; 2Nal = N[C@@H](Cc1ccc2ccccc2c1)C(=O)O; Pro(3S-OH) = O=C(O)[C@H]1NCC[C@@H]1O; cisHyp = O=C(O)[C@@H]1C[C@H](O)CN1; hArg = N=C(N)NCCCC[C@H](N)C(=O)O; Tic = O=C(O)[C@@H]1Cc2ccccc2CN1; dHyp = O=C(O)[C@H]1C[C@H](O)CN1; Cha = N[C@@H](CC1CCCCC1)C(=O)O; aThr = C[C@H](O)[C@H](N)C(=O)O; Chg = N[C@H](C(=O)O)C1CCCCC1; 2Pyrimidinyl = c1cnc(*)nc1; dPip = O=C(O)[C@H]1CCCCN1; Orn = NCCC[C@H](N)C(=O)O; Bn = c1ccc(C*)cc1

Target: T1, CXCR7 (Homo sapiens, UniProt P25106)
T1 construct: host or cells: CHO (PathHunter CHO-CXCR7 β-arrestin cells)
T1 sequence (P25106 whole entry): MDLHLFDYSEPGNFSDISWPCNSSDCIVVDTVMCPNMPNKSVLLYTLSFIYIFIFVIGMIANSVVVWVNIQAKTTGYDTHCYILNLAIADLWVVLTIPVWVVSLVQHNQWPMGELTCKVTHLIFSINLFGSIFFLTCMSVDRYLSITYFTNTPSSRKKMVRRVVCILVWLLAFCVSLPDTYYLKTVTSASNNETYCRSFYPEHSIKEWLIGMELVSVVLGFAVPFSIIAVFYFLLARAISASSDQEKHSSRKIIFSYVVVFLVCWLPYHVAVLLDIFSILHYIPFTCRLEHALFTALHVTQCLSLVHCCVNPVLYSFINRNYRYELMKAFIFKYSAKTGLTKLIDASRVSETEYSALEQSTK
Experiment: CXCR7 β-arrestin recruitment assay (PathHunter CHO-CXCR7, DiscoverX), agonistic assay
Assay type: cell-based
Conditions: agonistic assay; CHO CXCR7 β-arrestin cells; 90 min at 37° C.; chemiluminescence; read-out: β-Arrestin EC50
Method: Lyophilized peptides were weighed on a Microbalance (Mettler MX5) and dissolved in DMSO to a final concentration of 10 mM unless otherwise stated. Stock solutions were kept at +4° C., and protected from light.
2.2 CXCR7 β-Arrestin Recruitment Assay
The PathHunter CHO-CXCR7 (DiscoverX) assay was performed according to the manufacturer's protocol. In brief, CHO CXCR7 β-arrestin cells were seeded at a density of 5000 cells per well in 40 μl of F12 medium in black 96-half volume well culture plates and incubated overnight at 37° C. in a humidified atmosphere with 5% CO2. The next day, serial dilutions of PEM compounds have been prepared in DMSO and subsequently diluted in HBSS buffer containing 0.1% BSA.
For agonistic assay, 10 μl of compound solution or a solution of stromal cell-derived factor-1 (SDF-1) as positive control was added to the cells with a final DMSO concentration of 1% (v/v). The plate was incubated for 90 min at 37° C. in 5% CO2 incubator with gentle shaking (300 rpm) before addition of 40 μl of detection reagent per well. Reaction was developed for 90 min at room temperature in the dark with shaking, and chemiluminescence was measured with a Topcount (Perkin Elmer) luminescence counter.

| SMILES | EC50 |
| --- | --- |
| NCCCC[C@@H]1NC(=O)[C@H](Cc2c[nH]c3ccccc23)NC(=O)[C@@H](Cc2ccccc2)NC(=O)[C@H](Cc2c[nH]c3ccccc23)NC(=O)[C@@H]2Cc3ccccc3CN2C(=O)[C@H]2C[C@@H](N)CN2C1=O [compound 31, cyclo(-Trp-^DPhe-Trp-Lys-^DPro((4R)NH2)-Tic-)] (cyclo(K[dPro(cis-4-NH2)][Tic]W[dF]W)) | 138 ± 115 nM |
| N=C(N)NCCC[C@@H]1NC(=O)[C@H](Cc2c[nH]c3ccccc23)NC(=O)[C@@H](Cc2ccccc2)NC(=O)[C@H](Cc2c[nH]c3ccccc23)NC(=O)[C@@H]2Cc3ccccc3CN2C(=O)[C@H]2C[C@@H](N)CN2C1=O [compound 26, cyclo(-Trp-^DPhe-Trp-Arg-^DPro((4R)NH2)-Tic-)] (cyclo(R[dPro(cis-4-NH2)][Tic]W[dF]W)) | 6.1 ± 3.3 nM |
| N[C@@H]1C[C@@H]2C(=O)N3Cc4ccccc4C[C@H]3C(=O)N[C@@H](Cc3c[nH]c4ccccc34)C(=O)N[C@H](Cc3ccccc3)C(=O)N[C@@H](Cc3c[nH]c4ccccc34)C(=O)N[C@@H](Cc3c[nH]cn3)C(=O)N2C1 [compound 32, cyclo(-Trp-^DPhe-Trp-His-^DPro((4R)NH2)-Tic-)] (cyclo(H[dPro(cis-4-NH2)][Tic]W[dF]W)) | 20.4 ± 6.6 nM |
| CC[C@H](C)[C@@H]1NC(=O)[C@H]([C@@H](C)O)NC(=O)[C@H]2CCCN2C(=O)[C@H](Cc2ccc(O)cc2)NC(=O)[C@H](CCCNC(=N)N)NC(=O)[C@@H](CCCNC(=N)N)NC1=O [Ex. 2, cyclo(-Ile-^DArg-Arg-Tyr-^DPro-Thr-)] (cyclo(I[dR]RY[dP]T)) | 83.7 ± 77.4 nM |
| N=C(N)NCCC[C@@H]1NC(=O)[C@H](Cc2c[nH]c3ccccc23)NC(=O)[C@@H](Cc2ccccc2)NC(=O)[C@H](Cc2c[nH]c3ccccc23)NC(=O)[C@@H]2C[C@H](OCc3ccccc3)CN2C(=O)[C@H]2C[C@@H](N)CN2C1=O [compound 50, cyclo(-Trp-^DPhe-Trp-Arg-^DPro((4R)NH2)-(4S)-Hyp(Bn)-)] (cyclo(R[dPro(cis-4-NH2)][cisHyp](Bn)W[dF]W)) | 6.6 ± 1.6 nM |
| C[C@@H](O)[C@@H]1NC(=O)[C@H]2CCCN2C(=O)[C@H](Cc2c[nH]c3ccccc23)NC(=O)[C@H](CCCNC(=N)N)NC(=O)[C@@H](CCCNC(=N)N)NC(=O)[C@H](CC2CCCCC2)NC1=O [compound 62, cyclo(-Cha-^DArg-Arg-Trp-^DPro-Thr-)] (cyclo([Cha][dR]RW[dP]T)) | 37.7 ± 18.5 nM |
| CC[C@H](C)[C@@H]1NC(=O)[C@H]([C@@H](C)O)NC(=O)[C@H]2CCCCN2C(=O)[C@H](Cc2c[nH]c3ccccc23)NC(=O)[C@H](CCCNC(=N)N)NC(=O)[C@@H](CCCNC(=N)N)NC1=O [compound 14, cyclo(-Ile-^DArg-Arg-Trp-^DPip-Thr-)] (cyclo(I[dR]RW[dPip]T)) | 0.1 nM |
| C[C@@H](O)[C@@H]1NC(=O)[C@H]2CCCN2C(=O)[C@H](Cc2c[nH]c3ccccc23)NC(=O)[C@H](CCCNC(=N)N)NC(=O)[C@@H](CCCNC(=N)N)NC(=O)[C@H](Cc2cccc3ccccc23)NC1=O [Ex. 10, cyclo(-1Nal-^DArg-Arg-Trp-^DPro-Thr-)] (cyclo([1Nal][dR]RW[dP]T)) | 28.5 ± 12.6 nM |
| N=C(N)NCCC[C@@H]1NC(=O)[C@H](Cc2c[nH]c3ccccc23)NC(=O)[C@@H](Cc2ccccc2)NC(=O)[C@H](Cn2cccn2)NC(=O)[C@@H]2Cc3ccccc3CN2C(=O)[C@H]2C[C@@H](N)CN2C1=O [Ex. 74, cyclo(-Ala(1Pyraz)-^DPhe-Trp-Arg-^DPro((4R)NH2)-Tic-)] (cyclo(R[dPro(cis-4-NH2)][Tic][Ala(pyrazol-1-yl)][dF]W)) | 29.9 ± 8.9 nM |
| N=C(N)NCCC[C@@H]1NC(=O)[C@H](Cc2c[nH]c3ccccc23)NC(=O)[C@@H](Cc2ccccc2)NC(=O)[C@H](CCCNc2ncccn2)NC(=O)[C@@H]2Cc3ccccc3CN2C(=O)[C@H]2C[C@@H](N)CN2C1=O [Ex. 76, cyclo(-Orn(Ar2)-^DPhe-Trp-Arg-^DPro((4R)NH2)-Tic-)] (cyclo([Orn](2Pyrimidinyl)[dF]WR[dPro(cis-4-NH2)][Tic])) | 209 ± 6.6 nM |
| CC[C@H](C)[C@@H]1NC(=O)[C@H]([C@@H](C)O)NC(=O)[C@H]2CCCN2C(=O)[C@H](Cc2c[nH]c3ccccc23)NC(=O)[C@H](CCCNC(=N)N)NC(=O)[C@@H]([C@H](C)O)NC1=O [Ex. 7, cyclo(-Ile-^DThr-Arg-Trp-^DPro-Thr-)] (cyclo(I[dT]RW[dP]T)) | 53.2 ± 35.8 nM |
| CC[C@H](C)[C@@H]1NC(=O)[C@H]([C@H](C)O)NC(=O)[C@H]2CCCN2C(=O)[C@H](Cc2c[nH]c3ccccc23)NC(=O)[C@H](CCCNC(=N)N)NC(=O)[C@@H](CCCNC(=N)N)NC1=O [compound 9, cyclo(-Ile-^DArg-Arg-Trp-^DPro-alloThr-)] (cyclo(I[dR]RW[dP][aThr])) | 292 ± 101 nM |
| CC[C@H](C)[C@@H]1NC(=O)[C@H]([C@@H](C)O)NC(=O)[C@H]2CCCN2C(=O)[C@H](Cc2c[nH]c3ccccc23)NC(=O)[C@H](CCCNc2ncccn2)NC(=O)[C@@H](CCCNC(=N)N)NC1=O [Ex. 68, cyclo(-Ile-^DArg-Orn(Ar2)-Trp-^DPro-Thr-)] (cyclo(I[dR][Orn](2Pyrimidinyl)W[dP]T)) | 453 ± 186 nM |
| CC[C@H](C)[C@@H]1NC(=O)[C@H]([C@@H](C)O)NC(=O)[C@H]2CCCN2C(=O)[C@H](Cc2c[nH]c3ccccc23)NC(=O)[C@H](CCCNCc2ccccn2)NC(=O)[C@@H](CCCNC(=N)N)NC1=O [compound 70, cyclo(-Ile-^DArg-Orn(Ar4)-Trp-^DPro-Thr-)] (cyclo(I[dR][X1]W[dP]T)) | 4.6 ± 0.8 nM |
| N=C(N)NCCC[C@@H]1NC(=O)[C@H](Cc2c[nH]c3ccccc23)NC(=O)[C@@H](Cc2ccccc2)NC(=O)[C@H](Cc2c[nH]c3ccccc23)NC(=O)[C@@H]2C[C@H](OCc3ccccc3)CN2C(=O)[C@H]2C[C@H](O)CN2C1=O [compound 49, cyclo(-Trp-^DPhe-Trp-Arg-^DPro((4S)OH)-(4S)-Hyp(Bn)-)] (cyclo(R[dHyp][cisHyp](Bn)W[dF]W)) | 7.6 ± 10.1 nM |
| CC[C@H](C)[C@@H]1NC(=O)[C@H]([C@@H](C)O)NC(=O)[C@H]2CCCN2C(=O)[C@H](Cc2c[nH]c3ccccc23)NC(=O)[C@H](CCCCNC(=N)N)NC(=O)[C@@H](CCCNC(=N)N)NC1=O [compound 66, cyclo(-Ile-^DArg-hArg-Trp-^DPro-Thr-)] (cyclo(I[dR][hArg]W[dP]T)) | 11 ± 4.5 nM |
| C[C@@H](O)[C@@H]1NC(=O)[C@H]([C@@H](C)O)NC(=O)[C@H]2CCCN2C(=O)[C@H](CCCNC(=N)N)NC(=O)[C@H](Cc2c[nH]c3ccccc23)NC(=O)[C@@H](CCCNC(=N)N)NC1=O [compound 19, cyclo(-Thr-^DArg-Trp-Arg-^DPro-Thr-)] (cyclo(R[dP]TT[dR]W)) | 17.2 ± 18.9 nM |
| CC[C@H](C)[C@@H]1NC(=O)[C@H]([C@@H](C)O)NC(=O)[C@H]2CCCN2C(=O)[C@H](Cc2c[nH]c3ccccc23)NC(=O)[C@H](CCCNC2=NCCCN2)NC(=O)[C@@H](CCCNC(=N)N)NC1=O [Ex. 71, cyclo(-Ile-^DArg-Orn(A56)-Trp-^DPro-Thr-)] (cyclo(I[dR][Arg(Nω,Nω'-propylene)]W[dP]T)) | 3.2 ± 2.7 nM |
| CC(C)C[C@@H]1NC(=O)[C@H]([C@@H](C)O)NC(=O)[C@H]2CCCN2C(=O)[C@H](Cc2c[nH]c3ccccc23)NC(=O)[C@H](CCCNC(=N)N)NC(=O)[C@@H](CCCNC(=N)N)NC1=O [compound 60, cyclo(-Leu-^DArg-Arg-Trp-^DPro-Thr-)] (cyclo(L[dR]RW[dP]T)) | 5.3 ± 3.6 nM |
| N=C(N)NCCCC[C@@H]1NC(=O)[C@H](Cc2c[nH]c3ccccc23)NC(=O)[C@@H](Cc2ccccc2)NC(=O)[C@H](CCCNC(=N)N)NC(=O)[C@@H]2Cc3ccccc3CN2C(=O)[C@H]2C[C@@H](N)CN2C1=O [compound 39, cyclo(-Arg-^DPhe-Trp-hArg-^DPro((4R)N H2)-Tic-)] (cyclo(R[dF]W[hArg][dPro(cis-4-NH2)][Tic])) | 352 ± 79.3 nM |
| CC[C@H](C)[C@@H]1NC(=O)[C@H]([C@@H](C)O)NC(=O)[C@H]2C[C@@H](N)CN2C(=O)[C@H](Cc2c[nH]c3ccccc23)NC(=O)[C@H](CCCNC(=N)N)NC(=O)[C@@H](CCCNC(=N)N)NC1=O [Ex. 56, cyclo(-Ile-^DArg-Arg-Trp-^DPro((4R)NH2)-Thr-)] (cyclo(I[dR]RW[dPro(cis-4-NH2)]T)) | 949 ± 75.3 nM |
| CC[C@H](C)[C@@H]1NC(=O)[C@@H]2[C@@H](O)CCN2C(=O)[C@H]2CCCN2C(=O)[C@H](Cc2ccc3ccccc3c2)NC(=O)[C@H](CCCNC(=N)N)NC(=O)[C@@H](CCCNC(=N)N)NC1=O [compound 53, cyclo(-Ile-^DArg-Arg-2Nal-^DPro-Pro((3S)OH)—)] (cyclo([2Nal][dP][Pro(3S-OH)]I[dR]R)) | 76.8 ± 47.9 nM |
| N=C(N)NCCC[C@@H]1NC(=O)[C@H](Cc2c[nH]c3ccccc23)NC(=O)[C@@H](Cc2ccccc2)NC(=O)[C@H](Cc2c[nH]c3ccccc23)NC(=O)[C@@H]2C[C@H](N)CN2C(=O)[C@H]2CCCN2C1=O [compound 44, cyclo(-Trp-^DPhe-Trp-Arg-^DPro-Pro((4S)NH2)—)] (cyclo(R[dP][Pro(4S-NH2)]W[dF]W)) | 36.9 ± 14 nM |
| C[C@@H](O)[C@@H]1NC(=O)[C@H]2CCCN2C(=O)[C@H](Cc2c[nH]c3ccccc23)NC(=O)[C@H](CCCNC(=N)N)NC(=O)[C@@H](CCCNC(=N)N)NC(=O)[C@H](C2CCCCC2)NC1=O [compound 59, cyclo(-Chg-^DArg-Arg-Trp-^DPro-Thr-)] (cyclo([Chg][dR]RW[dP]T)) | 6.7 ± 2.2 nM |
